Measurements as given in ChEMBL document CHEMBL1201862, “PubChem BioAssay data set” (2004).
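Results reflect a 48-hour exposure of cells in 96-well plates to compound at five concentrations. GI50: concentration for 50% inhibition of growth.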 Active and inactive are the calls of the source. Cut-off read from the data, not from the text of the source: active = GI50 up to about 1.1 µM and inactive = higher.

What was measured:
Assay in all cases: NCI-60 cell line screen, 48 h
HCT-116 = system: HCT-116
NCI-H522 = system: NCI-H522
EKVX = system: EKVX
KM12 = system: KM12
RXF 393 = system: RXF 393
MDA-MB-435 = system: MDA-MB-435
MDA-N = system: MDA-N
HOP-92 = system: HOP-92
ACHN = system: ACHN
SK-MEL-2 = system: SK-MEL-2
PC-3 = system: PC-3
U-251 = system: U-251
SN12C = system: SN12C
OVCAR-3 = system: OVCAR-3
NCI/ADR-RES = system: NCI/ADR-RES
UO-31 = system: UO-31
UACC-257 = system: UACC-257
UACC-62 = system: UACC-62
SNB-75 = system: SNB-75
SK-OV-3 = system: SK-OV-3

Structure (SMILES)	GI50 (HCT-116)	GI50 (NCI-H522)	GI50 (EKVX)	GI50 (KM12)	GI50 (RXF 393)	GI50 (MDA-MB-435)	GI50 (MDA-N)	GI50 (HOP-92)	GI50 (ACHN)	GI50 (SK-MEL-2)	GI50 (PC-3)	GI50 (U-251)	GI50 (SN12C)	GI50 (OVCAR-3)	GI50 (NCI/ADR-RES)	GI50 (UO-31)	GI50 (UACC-257)	GI50 (UACC-62)	GI50 (SNB-75)	GI50 (SK-OV-3)
COC(=O)c1ccccc1/C=C1\Cc2ccc3ccccc3c2C1C (stereo unspecified)	8.09 µM (inactive)	16.6 µM (inactive)	37.7 µM (inactive)	41.4 µM (inactive)	39.2 µM (inactive)	45.7 µM (inactive)	43.6 µM (inactive)	67.9 µM (inactive)	> 100 µM (inactive)	> 100 µM (inactive)	60.7 µM (inactive)	> 100 µM (inactive)	98.9 µM (inactive)	25.6 µM (inactive)	36 µM (inactive)	42.1 µM (inactive)	48.9 µM (inactive)	57 µM (inactive)	72.4 µM (inactive)	
Cc1ccc2c(c1)SSSSS2	14.3 µM (inactive)	16.3 µM (inactive)	23.3 µM (inactive)	18.9 µM (inactive)	21.1 µM (inactive)	21 µM (inactive)	23.4 µM (inactive)	18.5 µM (inactive)	18.4 µM (inactive)		22.5 µM (inactive)	34.3 µM (inactive)	16.5 µM (inactive)	21.8 µM (inactive)	25.4 µM (inactive)	16.3 µM (inactive)	17.6 µM (inactive)	18.3 µM (inactive)	23.8 µM (inactive)	21.9 µM (inactive)
CCOc1nc(-c2ccccc2)cc(-c2ccc(N3CCOCC3)cc2)c1C#N	> 100 µM (inactive)	> 100 µM (inactive)	> 100 µM (inactive)	> 100 µM (inactive)	> 100 µM (inactive)	> 100 µM (inactive)	> 100 µM (inactive)	> 100 µM (inactive)	> 100 µM (inactive)	> 100 µM (inactive)	> 100 µM (inactive)	> 100 µM (inactive)	> 100 µM (inactive)	> 100 µM (inactive)	> 100 µM (inactive)	> 100 µM (inactive)	19.1 µM (inactive)		> 100 µM (inactive)	
COc1ccc(NC(C(N)=O)c2cc3cc(Br)ccc3nc2Cl)cc1 (stereo unspecified)	61 µM (inactive)	34 µM (inactive)	28.1 µM (inactive)	48.4 µM (inactive)	38.3 µM (inactive)	22.1 µM (inactive)	28.1 µM (inactive)	22.5 µM (inactive)	> 100 µM (inactive)	30.3 µM (inactive)	44.6 µM (inactive)		> 100 µM (inactive)	60.7 µM (inactive)	39 µM (inactive)	> 100 µM (inactive)	71.8 µM (inactive)	52.7 µM (inactive)	81.5 µM (inactive)	> 100 µM (inactive)
CCCCCC(/C=N/N)C(O)(C(F)(F)F)C(F)(F)F (stereo unspecified)	3.99 µM (inactive)	5.51 µM (inactive)	2.58 µM (inactive)	4.44 µM (inactive)	7.28 µM (inactive)	3.53 µM (inactive)	3.55 µM (inactive)	2.79 µM (inactive)	4.15 µM (inactive)	3.37 µM (inactive)	3.27 µM (inactive)	3.61 µM (inactive)	3.23 µM (inactive)	2.04 µM (inactive)	> 10 µM (inactive)		5 µM (inactive)	3.9 µM (inactive)	3.29 µM (inactive)	5.06 µM (inactive)
CCCCCCNC(=O)c1cc(CCc2cc(O)ccc2O)ccc1O		0.916 µM (active)	5.75 µM (inactive)	4.46 µM (inactive)	1.8 µM (inactive)	3.61 µM (inactive)	2.66 µM (inactive)	1.72 µM (inactive)	2.66 µM (inactive)	2.74 µM (inactive)	2.18 µM (inactive)	2.3 µM (inactive)		2.3 µM (inactive)	3.61 µM (inactive)	1.55 µM (inactive)	2.2 µM (inactive)		4.93 µM (inactive)	9.95 µM (inactive)
